# Patent US8263598B2, “Substituted sulfonamide compounds” (Gruenenthal GmbH, priority 2008, dated 2012)
# Experiments:
# [1] = target: T1, B1R receptor of rats (rB1R) (Rattus norvegicus, UniProt P97583); experiment: FLIPR Ca2+ assay on rat bradykinin 1 receptor (CHO K1 rB1R cells); type: cell-based; details: test substance 10 μM; CHO K1 cells with B1R gene of rats; agonist Des-Arg9-bradykinin 100 nM; compared to maximum achievable inhibition
# T1 construct: host or cells: CHO K1 cells
# T1 sequence (P97583 1-337): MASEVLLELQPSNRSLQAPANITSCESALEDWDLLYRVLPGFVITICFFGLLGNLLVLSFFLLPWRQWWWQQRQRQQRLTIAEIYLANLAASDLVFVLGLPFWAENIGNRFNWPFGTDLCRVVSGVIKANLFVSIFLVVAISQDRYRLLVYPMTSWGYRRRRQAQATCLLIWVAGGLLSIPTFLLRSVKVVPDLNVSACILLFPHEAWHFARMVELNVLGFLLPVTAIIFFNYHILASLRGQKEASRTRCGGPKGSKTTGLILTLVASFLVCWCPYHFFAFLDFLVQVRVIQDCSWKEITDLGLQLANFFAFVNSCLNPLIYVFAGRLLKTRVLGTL
# Outline: (§1)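 Values are percent inhibition of agonist-evoked Ca²⁺ influx, measured by Fluo-4 fluorescence peak in FLIPR relative to maximum achievable inhibition. Compound at 10 μM was preincubated 10 min on B1R-transfected CHO K1 cells before challenge with 0.5 nM Lys-Des-Arg9-bradykinin (human) or 100 nM Des-Arg9-bradykinin (rat).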
# [2] = target: T2, human B1R receptor (hB1R) (Homo sapiens, UniProt P46663); experiment: FLIPR Ca2+ assay on human bradykinin 1 receptor (CHO K1 hB1R cells); type: cell-based; details: test substance 10 μM; CHO K1 cells with human B1R gene; agonist Lys-Des-Arg9-bradykinin 0.5 nM; compared to maximum achievable inhibition
# T2 construct: host or cells: CHO K1 cells
# T2 sequence (P46663 1-353): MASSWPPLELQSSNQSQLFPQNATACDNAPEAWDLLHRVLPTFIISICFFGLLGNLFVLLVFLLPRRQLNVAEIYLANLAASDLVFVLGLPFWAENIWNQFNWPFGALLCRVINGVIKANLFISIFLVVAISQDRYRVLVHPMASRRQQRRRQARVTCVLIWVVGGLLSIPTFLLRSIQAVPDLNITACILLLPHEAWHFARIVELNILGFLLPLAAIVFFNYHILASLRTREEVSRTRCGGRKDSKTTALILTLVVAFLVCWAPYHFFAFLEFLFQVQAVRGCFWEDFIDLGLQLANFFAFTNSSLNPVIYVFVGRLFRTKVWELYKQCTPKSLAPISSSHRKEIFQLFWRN
# Outline: as §1
SMILES,inhibition at 10 µM [1] [%],inhibition at 10 µM [2] [%]
"COc1cc(C)c(S(=O)(=O)N(CCOCC(=O)N2CCn3c(CN4CCCC4)ccc3C2c2ccccc2)Cc2ccccc2)c(C)c1C (stereo not drawn) [Example 116, N-benzyl-4-methoxy-2,3,6-trimethyl-N-(2-(2-oxo-2-(1-phenyl-6-(pyrrolidin-1-ylmethyl)-3,4-dihydropyrrolo[1,2-a]pyrazin-2(1H)-yl)ethoxy)ethyl)benzene-sulfonamide]",102,103
"COc1cc(C)c(S(=O)(=O)N(C)CCOCC(=O)N2CCn3cccc3C2CCc2ccccc2)c(C)c1 (stereo not drawn) [Example 133, 4-methoxy-N,2,6-trimethyl-N-(2-(2-oxo-2-(1-phenethyl-3,4-dihydropyrrolo[1,2-a]pyrazin-2(1H)-yl)ethoxy)ethyl)benzenesulfonamide]",102,105
"COc1cc(C)c(S(=O)(=O)N(CCOCC(=O)N2CCn3c(CN(C)C)ccc3C2c2cccs2)Cc2ccccc2)c(C)c1 (stereo not drawn) [Example 130, N-benzyl-N-(2-(2-(6-((dimethylamino)methyl)-1-(thiophen-2-yl)-3,4-dihydropyrrolo[1,2-a]pyrazin-2(1H)-yl)-2-oxoethoxy)ethyl)-4-methoxy-2,6-dimethyl-benzenesulfonamide]",102,104
"Cc1cc(C)c(S(=O)(=O)N(C)CCOCC(=O)N2CCn3cccc3C2c2ccc(C)c(C)c2)c(C)c1 (stereo not drawn) [Example 72, N-(2-(2-(1-(3,4-dimethylphenyl)-3,4-dihydropyrrolo[1,2-a]pyrazin-2(1H)-yl)-2-oxoethoxy)ethyl)-N,2,4,6-tetramethylbenzenesulfonamide]",71,97
"Cc1cc(C)c(S(=O)(=O)N(C)CCOCC(=O)N2CCn3cccc3C2c2cccc(C(F)(F)F)c2)c(C)c1 (stereo not drawn) [Example 75, N,2,4,6-tetramethyl-N-(2-(2-oxo-2-(1-(3-(trifluoromethyl)phenyl)-3,4-dihydropyrrolo[1,2-a]pyrazin-2(1H)-yl)ethoxy)ethyl)benzenesulfonamide]",48,63
"COc1cc(C)c(S(=O)(=O)N(CCOCC(=O)N2CCn3cccc3C2c2cccs2)Cc2ccccc2)c(C)c1 (stereo not drawn) [Example 50, N-benzyl-4-methoxy-2,6-dimethyl-N-(2-(2-oxo-2-(1-(thiophen-2-yl)-3,4-dihydropyrrolo[1,2-a]pyrazin-2(1H)-yl)ethoxy)ethyl)benzenesulfonamide]",100,48
"COc1c(C)cc(S(=O)(=O)N(C)CCOCC(=O)N2CCn3c(CN(C)C)ccc3C2Cc2ccccc2)c(C)c1C (stereo not drawn) [Example 109, N-(2-(2-(1-benzyl-6-((dimethylamino)methyl)-3,4-dihydropyrrolo[1,2-a]pyrazin-2(1H)-yl)-2-oxoethoxy)ethyl)-4-methoxy-N,2,3,5-tetramethylbenzene-sulfonamide]",101,102
"Cc1cc(C)c(S(=O)(=O)N(C)CCOCC(=O)N2CCn3c(CN(C)C)ccc3C2Cc2ccccc2)c(C)c1 (stereo not drawn) [Example 143, N-(2-(2-(1-benzyl-6-((dimethylamino)methyl)-3,4-dihydropyrrolo[1,2-a]pyrazin-2(1H)-yl)-2-oxoethoxy)ethyl)-N,2,4,6-tetramethylbenzenesulfonamide]",99,100
"CCCCC1c2ccc(CN(C)C)n2CCN1C(=O)COCCN(C)S(=O)(=O)c1cc(C)c(OC)c(C)c1C (stereo not drawn) [Example 111, N-(2-(2-(1-butyl-6-((dimethylamino)methyl)-3,4-dihydropyrrolo[1,2-a]pyrazin-2(1H)-yl)-2-oxoethoxy)ethyl)-4-methoxy-N,2,3,5-tetramethylbenzene-sulfonamide]",100,100
"COc1cc(C)c(S(=O)(=O)N(CCOCC(=O)N2CCn3ccnc3C2)Cc2ccccc2)c(C)c1C [Example 43, N-benzyl-N-(2-(2-(5,6-dihydroimidazo[1,2-a]pyrazin-7(8H)-yl)-2-oxoethoxy)ethyl)-4-methoxy-2,3,6-trimethylbenzenesulfonamide]",73,33
"COc1cc(C)c(S(=O)(=O)N(C)CCOCC(=O)N2CCn3cccc3C2c2ccc(C(C)(C)C)cc2)c(C)c1 (stereo not drawn) [Example 64, N-(2-(2-(1-(4-tert-butylphenyl)-3,4-dihydropyrrolo[1,2-a]pyrazin-2(1H)-yl)-2-oxoethoxy)ethyl)-4-methoxy-N,2,6-trimethylbenzenesulfonamide]",99,100
"CCC1c2ccc(CN(C)C)n2CCN1C(=O)COCCN(CC(C)C)S(=O)(=O)c1c(C)cc(OC)c(C)c1C (stereo not drawn) [Example 99, N-(2-(2-(6-((dimethylamino)methyl)-1-ethyl-3,4-dihydropyrrolo[1,2-a]pyrazin-2(1H)-yl)-2-oxoethoxy)ethyl)-N-isobutyl-4-methoxy-2,3,6-trimethylbenzene-sulfonamide]",101,102

# Second part, the compound after the results:
inhibition at 10 µM [1] [%],inhibition at 10 µM [2] [%],SMILES
98,82,"COc1cc(C)c(S(=O)(=O)N(CCOCC(=O)N2CCn3cccc3C2C(C)(C)C)CC(C)C)c(C)c1C (stereo not drawn) [Example 18, N-(2-(2-(1-tert-butyl-3,4-dihydropyrrolo[1,2-a]pyrazin-2(1H)-yl)-2-oxoethoxy)ethyl)-N-isobutyl-4-methoxy-2,3,6-trimethylbenzenesulfonamide]"
98,101,"COc1cc(C)c(S(=O)(=O)N(C)CCOCC(=O)N2CCn3cccc3C2c2cccs2)c(C)c1C (stereo not drawn) [Example 88, 4-methoxy-N,2,3,6-tetramethyl-N-(2-(2-oxo-2-(1-(thiophen-2-yl)-3,4-dihydropyrrolo[1,2-a]pyrazin-2(1H)-yl)ethoxy)ethyl)benzenesulfonamide]"
103,103,"COc1cc(C)c(S(=O)(=O)N(CCOCC(=O)N2CCn3c(CN(C)C)ccc3C2c2ccccc2)CC(C)C)c(C)c1C (stereo not drawn) [Example 91, N-(2-(2-(6-((dimethylamino)methyl)-1-phenyl-3,4-dihydropyrrolo[1,2-a]pyrazin-2(1H)-yl)-2-oxoethoxy)ethyl)-N-isobutyl-4-methoxy-2,3,6-trimethylbenzene-sulfonamide]"
48,81,"COc1c(C)cc(S(=O)(=O)N(C)CCOCC(=O)N2CCn3cccc3C2c2cccc(F)c2)c(C)c1C (stereo not drawn) [Example 35, N-(2-(2-(1-(3-fluorophenyl)-3,4-dihydropyrrolo[1,2-a]pyrazin-2(1H)-yl)-2-oxoethoxy)ethyl)-4-methoxy-N,2,3,5-tetramethylbenzenesulfonamide]"
97,99,"COc1cc(C)c(S(=O)(=O)N(C)CCOCC(=O)N2CCn3cccc3C2C)c(C)c1C (stereo not drawn) [Example 80, 4-methoxy-N,2,3,6-tetramethyl-N-(2-(2-(1-methyl-3,4-dihydropyrrolo[1,2-a]pyrazin-2(1H)-yl)-2-oxoethoxy)ethyl)benzenesulfonamide]"
91,33,"COc1cc(C)c(S(=O)(=O)N(CCOCC(=O)N2CCn3cccc3C2c2ccc(Cl)nc2)Cc2ccccc2)c(C)c1C (stereo not drawn) [Example 42, N-benzyl-N-(2-(2-(1-(6-chloropyridin-3-yl)-3,4-dihydropyrrolo[1,2-a]pyrazin-2(1H)-yl)-2-oxoethoxy)ethyl)-4-methoxy-2,3,6-trimethylbenzenesulfonamide]"
98,84,"COc1cc(C)c(S(=O)(=O)N(CCOCC(=O)N2CCn3cccc3C2c2ccc(Cl)nc2)CC(C)C)c(C)c1C (stereo not drawn) [Example 20, N-(2-(2-(1-(6-chloropyridin-3-yl)-3,4-dihydropyrrolo[1,2-a]pyrazin-2(1H)-yl)-2-oxoethoxy)ethyl)-N-isobutyl-4-methoxy-2,3,6-trimethylbenzenesulfonamide]"
103,98,"CCC1c2cccn2CCN1C(=O)COCCN(CC(C)C)S(=O)(=O)c1c(C)cc(OC)c(C)c1C (stereo not drawn) [Example 100, N-(2-(2-(1-ethyl-3,4-dihydropyrrolo[1,2-a]pyrazin-2(1H)-yl)-2-oxoethoxy)ethyl)-N-isobutyl-4-methoxy-2,3,6-trimethylbenzenesulfonamide]"
99,34,"COc1cccc(C2c3cccn3CCN2C(=O)COCCN(CC(C)C)S(=O)(=O)c2c(C)cc(OC)c(C)c2C)c1 (stereo not drawn) [Example 26, N-isobutyl-4-methoxy-N-(2-(2-(1-(3-methoxyphenyl)-3,4-dihydropyrrolo[1,2-a]pyrazin-2(1H)-yl)-2-oxoethoxy)ethyl)-2,3,6-trimethylbenzenesulfonamide]"
